As usually defined, the IC50 is the concentration that inhibits the measured activity by half. Usually TGI stands for how far tumour growth fell short of that in controls.

Experimental findings from ChEMBL document CHEMBL5370655 are described below.

Assay [1] addresses T1, Epidermal growth factor receptor (Homo sapiens, UniProt P00533, C797S/L858R/T790M).
The test system of assay [2] is PC-9. The assay is classed as functional, cell-based. The conditions noted are these: Homo sapiens, PC-9, 72 h.
Assay [3] relates to PC-9. The experiment in a line: Antiproliferative activity against human PC-9 cells assessed as inhibition of cell growth measured after 72 hrs by CCK8 assay. The class given is functional, cell-based. The note with it: PC-9, 72 h. In general terms: Formazan colour is commonly taken as a measure of viable cells.
For assay [4], the system named is A-431. The experiment in a line: Antiproliferative activity against human A-431 cells assessed as inhibition of cell growth measured after 72 hrs by CCK8 assay. The class given is functional, cell-based. The conditions noted are these: A-431, 72 h.
Assay [5] concerns NCI-H1975. The experiment in a line: Antiproliferative activity against human NCI-H1975 cells assessed as inhibition of cell growth measured after 72 hrs by CCK8 assay. The assay is classed as functional, cell-based. The note with it: NCI-H1975, 72 h.
In assay [6] the target is T1, Epidermal growth factor receptor. This is another data set of the same source.
For assay [7], the target named is Epidermal growth factor receptor (Homo sapiens, UniProt P00533, C797S/EX19DEL/T790M).
The target of assay [8] is Epidermal growth factor receptor (Homo sapiens, UniProt P00533).
For assay [9], the target named is Epidermal growth factor receptor (Homo sapiens, UniProt P00533, L858R/T790M). The experiment in a line: Inhibition of EGFR L858R/T790M double mutant (unknown origin) using polyE4Y1 as substrate incubated for 5 mins with compound followed by substrate addition measured after 60 mins in presence of ATP by ADP-Glo reagent based assay. On the technique in general: In ADP-Glo the light output rises with the ADP produced.

Assay [10] addresses Epidermal growth factor receptor (Homo sapiens, UniProt P00533, L858R).
The nature of assay [11]: Induction of cell cycle arrest in human H1975-TM cells assessed as accumulation at G2/M phase at 500 nM measured after 24 hrs by RNase A/propidium iodide staining based flow cytometric analysis (reference value: 17.6 %). The class given is functional.
Assay [12] can be described thus: Induction of apoptosis in human H1975-TM cells assessed as apoptotic cells at 500 nM measured after 24 by Annexin V-FITC and propidium iodide staining based flow cytometric analysis (reference value: 7.08 %). The assay is classed as functional. The note with it: time 24 hrs.
A short description of assay [13]: Induction of cell cycle arrest in human H1975-TM cells assessed as accumulation at S phase at 500 nM measured after 24 hrs by RNase A/propidium iodide staining based flow cytometric analysis (reference value: 18.1 %). The class given is functional.
A short description of assay [14]: Induction of cell cycle arrest in human H1975-TM cells assessed as accumulation at G0/G1 phase at 500 nM measured after 24 hrs by RNase A/propidium iodide staining based flow cytometric analysis (reference value: 64.3 %). The assay is classed as functional. (A flow cytometer gives signals particle by particle.)
The nature of assay [15]: Antitumor activity against human H1975-TM cells xenografted in BALB/c mouse assessed as tumor growth inhibition at 25 mg/kg, po measured after 25 days. The note with it: time 25 day. The assay is classed as functional.

Chain of Epidermal growth factor receptor (Homo sapiens, UniProt P00533) (P00533 whole entry): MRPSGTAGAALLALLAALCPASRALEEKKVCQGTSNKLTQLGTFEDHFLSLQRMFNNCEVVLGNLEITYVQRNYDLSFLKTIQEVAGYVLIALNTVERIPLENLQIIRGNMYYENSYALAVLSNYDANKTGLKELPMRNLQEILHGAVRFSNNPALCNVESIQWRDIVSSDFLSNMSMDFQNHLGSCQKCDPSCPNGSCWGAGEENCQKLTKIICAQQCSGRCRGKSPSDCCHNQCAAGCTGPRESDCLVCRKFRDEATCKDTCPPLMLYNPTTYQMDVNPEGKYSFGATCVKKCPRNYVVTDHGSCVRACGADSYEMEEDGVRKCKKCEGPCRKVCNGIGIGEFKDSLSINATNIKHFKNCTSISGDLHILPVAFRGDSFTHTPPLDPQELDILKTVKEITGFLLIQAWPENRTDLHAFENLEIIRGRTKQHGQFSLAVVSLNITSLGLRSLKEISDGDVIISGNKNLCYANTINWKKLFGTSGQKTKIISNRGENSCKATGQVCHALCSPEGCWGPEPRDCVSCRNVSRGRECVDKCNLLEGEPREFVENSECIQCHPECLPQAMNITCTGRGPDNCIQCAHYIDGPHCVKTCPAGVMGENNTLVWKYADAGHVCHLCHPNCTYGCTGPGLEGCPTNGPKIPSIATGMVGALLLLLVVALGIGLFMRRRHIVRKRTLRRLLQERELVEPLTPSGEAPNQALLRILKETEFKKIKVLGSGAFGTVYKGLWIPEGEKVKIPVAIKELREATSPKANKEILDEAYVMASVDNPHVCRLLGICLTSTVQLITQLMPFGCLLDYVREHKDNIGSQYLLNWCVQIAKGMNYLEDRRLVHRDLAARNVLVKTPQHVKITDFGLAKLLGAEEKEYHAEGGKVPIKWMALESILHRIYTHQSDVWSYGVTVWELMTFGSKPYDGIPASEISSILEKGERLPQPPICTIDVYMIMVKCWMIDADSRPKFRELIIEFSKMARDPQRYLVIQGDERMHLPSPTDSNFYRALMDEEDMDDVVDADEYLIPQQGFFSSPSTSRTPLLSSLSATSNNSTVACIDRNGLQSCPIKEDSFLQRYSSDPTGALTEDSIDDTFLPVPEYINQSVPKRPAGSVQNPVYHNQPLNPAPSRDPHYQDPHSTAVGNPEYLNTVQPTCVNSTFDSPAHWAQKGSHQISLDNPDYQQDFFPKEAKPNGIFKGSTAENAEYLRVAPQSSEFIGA
Chain of Epidermal growth factor receptor (Homo sapiens, UniProt P00533, C797S/EX19DEL/T790M) (P00533 whole entry, looked up, stated change not applied): as the sequence (P00533 whole entry) above
T1 sequence (P00533 25-1210 T790M/C797S/L858R limits assumed): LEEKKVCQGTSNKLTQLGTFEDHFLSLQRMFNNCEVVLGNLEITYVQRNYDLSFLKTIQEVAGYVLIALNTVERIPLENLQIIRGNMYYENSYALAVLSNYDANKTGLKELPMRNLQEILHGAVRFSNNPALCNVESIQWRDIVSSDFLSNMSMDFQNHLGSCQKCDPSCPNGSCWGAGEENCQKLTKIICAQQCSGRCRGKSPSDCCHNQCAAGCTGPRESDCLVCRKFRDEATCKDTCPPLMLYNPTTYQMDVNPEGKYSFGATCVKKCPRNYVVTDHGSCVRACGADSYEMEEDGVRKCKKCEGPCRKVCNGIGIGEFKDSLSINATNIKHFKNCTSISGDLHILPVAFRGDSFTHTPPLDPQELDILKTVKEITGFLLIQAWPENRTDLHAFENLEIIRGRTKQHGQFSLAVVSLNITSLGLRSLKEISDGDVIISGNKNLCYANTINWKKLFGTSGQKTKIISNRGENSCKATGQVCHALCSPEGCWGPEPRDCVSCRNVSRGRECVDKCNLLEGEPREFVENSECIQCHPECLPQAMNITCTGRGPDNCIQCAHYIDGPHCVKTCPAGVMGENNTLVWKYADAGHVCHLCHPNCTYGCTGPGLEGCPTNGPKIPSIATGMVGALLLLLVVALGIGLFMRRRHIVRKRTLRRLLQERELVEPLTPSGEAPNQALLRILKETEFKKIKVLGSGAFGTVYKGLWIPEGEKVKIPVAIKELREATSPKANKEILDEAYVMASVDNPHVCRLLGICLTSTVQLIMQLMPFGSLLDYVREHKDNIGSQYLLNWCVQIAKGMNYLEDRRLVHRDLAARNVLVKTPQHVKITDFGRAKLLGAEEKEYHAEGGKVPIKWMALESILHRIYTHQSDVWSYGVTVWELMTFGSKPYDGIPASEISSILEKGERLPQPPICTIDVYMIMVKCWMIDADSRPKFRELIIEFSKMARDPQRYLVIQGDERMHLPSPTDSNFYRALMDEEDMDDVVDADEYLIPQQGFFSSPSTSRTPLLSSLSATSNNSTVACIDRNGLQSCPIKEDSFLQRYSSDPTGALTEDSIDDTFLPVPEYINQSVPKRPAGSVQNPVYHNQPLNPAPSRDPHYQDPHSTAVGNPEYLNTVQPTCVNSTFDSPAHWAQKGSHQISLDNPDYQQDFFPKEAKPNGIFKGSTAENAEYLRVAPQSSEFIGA
Chain of Epidermal growth factor receptor (Homo sapiens, UniProt P00533, L858R/T790M) (P00533 25-1210 T790M/L858R limits assumed): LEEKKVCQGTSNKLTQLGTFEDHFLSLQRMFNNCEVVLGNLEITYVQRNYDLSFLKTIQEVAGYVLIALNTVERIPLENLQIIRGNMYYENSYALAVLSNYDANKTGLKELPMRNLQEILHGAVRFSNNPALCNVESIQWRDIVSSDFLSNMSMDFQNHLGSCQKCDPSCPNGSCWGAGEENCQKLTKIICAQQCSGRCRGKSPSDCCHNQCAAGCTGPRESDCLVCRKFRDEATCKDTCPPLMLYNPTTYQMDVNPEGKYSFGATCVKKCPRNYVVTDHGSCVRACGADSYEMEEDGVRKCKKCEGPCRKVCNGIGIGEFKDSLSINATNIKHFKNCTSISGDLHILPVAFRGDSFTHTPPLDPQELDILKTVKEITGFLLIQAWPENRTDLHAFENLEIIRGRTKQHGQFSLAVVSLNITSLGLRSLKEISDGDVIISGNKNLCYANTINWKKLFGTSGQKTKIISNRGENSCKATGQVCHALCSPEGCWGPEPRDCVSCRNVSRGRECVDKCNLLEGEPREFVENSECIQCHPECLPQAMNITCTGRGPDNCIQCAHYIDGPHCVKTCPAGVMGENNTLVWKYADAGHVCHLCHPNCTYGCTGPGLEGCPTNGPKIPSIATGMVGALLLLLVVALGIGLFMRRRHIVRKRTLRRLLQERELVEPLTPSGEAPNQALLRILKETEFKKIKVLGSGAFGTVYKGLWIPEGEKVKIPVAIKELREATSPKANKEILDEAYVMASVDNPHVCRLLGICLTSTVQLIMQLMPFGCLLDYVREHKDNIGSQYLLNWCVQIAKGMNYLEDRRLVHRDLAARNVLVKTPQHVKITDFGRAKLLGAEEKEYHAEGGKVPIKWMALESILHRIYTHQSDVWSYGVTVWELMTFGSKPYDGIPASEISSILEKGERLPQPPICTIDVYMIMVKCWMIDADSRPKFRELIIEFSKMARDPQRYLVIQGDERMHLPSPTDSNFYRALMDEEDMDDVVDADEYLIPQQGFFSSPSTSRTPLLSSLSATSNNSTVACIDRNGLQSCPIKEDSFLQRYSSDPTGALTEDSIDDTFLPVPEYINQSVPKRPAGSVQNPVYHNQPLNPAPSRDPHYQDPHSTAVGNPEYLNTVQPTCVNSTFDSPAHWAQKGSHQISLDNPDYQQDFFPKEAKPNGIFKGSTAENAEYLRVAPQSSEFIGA

`CCS(=O)(=O)N1CCC(c2nc(-c3ccc(F)cc3)c(-c3ccnc(Nc4ccc5c(ccn5CCN5CCOCC5)c4)n3)s2)CC1`: the half-maximal inhibitory concentration (IC50) in [1] stood at 71 nM.

On to `C=CC(=O)Nc1cc(Nc2nccc(-c3cn(C)c4ccccc34)n2)c(OC)cc1N(C)CCN(C)C` [OSIMERTINIB], for which the concentration for half-maximal inhibition (IC50) in assay [2] was determined as 2200 nM; in assay [3], 5 nM; in assay [4], […]; in [5], […].

In turn, `CCN(CC)CCn1ccc2cc(Nc3nccc(-c4sc(C5CCN(S(=O)(=O)CC)CC5)nc4-c4ccc(F)cc4)n3)ccc21` came in with an IC50 in [1] of 34 nM.

As for `COc1ccc(-c2nccn2-c2ccnc(Nc3ccc4c(ccn4CCN(C)C)c3)n2)cc1`, the IC50 in assay [1] turned out to be 289 nM.

In turn, `CCS(=O)(=O)Nc1nc(-c2ccc(F)cc2)c(-c2ccnc(Nc3ccc(C4CCN(C)CC4)cc3)n2)s1` gave a half-inhibitory concentration (IC50) in [1] of 2.1 nM.

In turn, `CCS(=O)(=O)N1CCC(c2nc(-c3ccc(F)cc3)c(-c3ccnc(Nc4ccc(N5CCOCC5)cc4)n3)s2)CC1` showed a half-inhibitory concentration (IC50) in [1] of 58 nM.

On to `CN(C)CCn1ccc2cc(Nc3nccc(-c4sc(N5CCOCC5)nc4-c4ccc(F)cc4)n3)ccc21`, for which half-maximal inhibition in [1] (IC50) required 26 nM.

In assay [1], `CCCCS(=O)(=O)Nc1nc(-c2ccc(F)cc2)c(-c2ccnc(Nc3ccc4c(ccn4CCN(C)C)c3)n2)s1` showed an IC50 of 4.3 nM.

For `CCS(=O)(=O)Nc1nc(-c2ccc(F)cc2)c(-c2ccnc(Nc3ccc(N4CCN(C)CC4)cc3)n2)s1`, in [1], half-maximal inhibition (IC50) required 1.8 nM.

In assay [1], `CC(C)c1nc(-c2ccc(F)cc2)c(-c2ccnc(Nc3ccc4c(ccn4CCN(C)C)c3)n2)s1` registered an IC50 of 20 nM.

With `CCS(=O)(=O)N1CCC(c2nc(-c3ccc(F)cc3)c(-c3ccnc(Nc4ccc(N5CCN(C)CC5)c(C)c4)n3)s2)CC1`, the IC50 in assay [2] came out at 40 nM; in assay [3] it was 35 nM; in assay [6], 289 nM; in [7] it was 70 nM; in [8], 67 nM; in [1], 36 nM. In addition, the concentration for half-maximal inhibition (IC50) is 17 nM in assay [9], 610 nM in assay [4], 100 nM in assay [5] and 5.8 nM in assay [10].

`COc1cc(N2CCC(N3CCN(C)CC3)CC2)c(C)cc1Nc1nccc(-n2ccnc2-c2ccc(F)cc2)n1` registered an IC50 in assay [1] of 28 nM.

The compound `CCS(=O)(=O)Nc1nc(-c2ccc(F)cc2)c(-c2ccnc(Nc3ccc(N4CCN(C)CC4)c(C)c3)n2)s1` had a concentration for half-maximal inhibition (IC50) in assay [1] of 3.6 nM.

`CN(C)CCn1ccc2cc(Nc3nccc(-n4ccnc4-c4cccc(F)c4)n3)ccc21`: in assay [1], the midpoint of inhibition, the IC50, lay at 90 nM.

In assay [1], `CCS(=O)(=O)Nc1nc(-c2ccc(F)cc2)c(-c2ccnc(Nc3cc(-c4cnn(C)c4)c(N4CCOCC4)cc3OC)n2)s1` yielded a half-maximal inhibitory concentration (IC50) of 70.1 nM.

For the compound `CN(C)CCn1ccc2cc(Nc3nccc(-n4ccc(-c5ccc(F)cc5)n4)n3)ccc21`, 409 nM corresponded to half-maximal inhibition in assay [1] (IC50).

For `CCS(=O)(=O)Nc1nc(-c2ccc(F)cc2)c(-c2ccnc(Nc3ccc(N4CCN(C)CC4)cc3OC)n2)s1`, the IC50 in assay [1] amounted to 2.5 nM.

In turn, `CCS(=O)(=O)N1CCC(c2nc(-c3ccc(F)cc3)c(-c3ccnc(Nc4ccc(N5CCOCC5)cc4OC)n3)s2)CC1` yielded a half-maximal inhibitory concentration (IC50) in [1] of 71 nM.

In the case of `CCS(=O)(=O)N1CCC(c2nc(-c3ccc(F)cc3)c(-c3ccnc(Nc4ccc(N5CCN(C(C)C)CC5)cc4)n3)s2)CC1`, in assay [1], the midpoint of inhibition, the IC50, lay at 49 nM.

In assay [1], `CN(C)CCn1ccc2cc(Nc3nccc(-c4sc(NS(=O)(=O)C5CCCCC5)nc4-c4ccc(F)cc4)n3)ccc21` came in with an IC50 of 20 nM.

`CCS(=O)(=O)Nc1nc(-c2ccc(F)cc2)c(-c2ccnc(Nc3ccc4c(ccn4CCN4CCOCC4)c3)n2)s1`: the IC50 in assay [1] is 6.3 nM.

For the compound `COc1cc(N2CCN(C)CC2)ccc1Nc1nccc(-n2ccnc2-c2ccc(F)cc2)n1`, in assay [1], the half-maximal inhibitory concentration (IC50) turned out to be 127 nM.

In assay [1], `CCS(=O)(=O)N1CCC(c2nc(-c3ccc(F)cc3)c(-c3ccnc(Nc4ccc(N5CCOCC5)c(F)c4)n3)s2)CC1` yielded an IC50 of 77 nM.

Compound `CCS(=O)(=O)Nc1nc(-c2ccc(F)cc2)c(-c2ccnc(Nc3ccc4c(ccn4CCN(C)C)c3)n2)s1` registered a concentration for half-maximal inhibition (IC50) in [1] of 0.9 nM.

Compound `CNc1nc(-c2ccc(F)cc2)c(-c2ccnc(Nc3ccc4c(ccn4CCN(C)C)c3)n2)s1` had an IC50 in [1] of 19 nM.

In the case of `CCS(=O)(=O)N1CCC(c2nc(-c3ccc(F)cc3)c(-c3ccnc(Nc4ccc(C5CCN(C)CC5)cc4)n3)s2)CC1`, in [1], half-maximal inhibition (IC50) was put at 15 nM.

In turn, `CCN1CCN(c2ccc(Nc3nccc(-c4sc(C5CCN(S(=O)(=O)CC)CC5)nc4-c4ccc(F)cc4)n3)cc2)CC1` yielded an IC50 in [1] of 26 nM.

As to `CCS(=O)(=O)N1CCC(c2nc(-c3ccc(F)cc3)c(-c3ccnc(Nc4ccc(N5CCN(C)CC5)cc4)n3)s2)CC1`, the IC50 is 80 nM in assay [2]; 6 nM in [3]; 166 nM in assay [6]; 30 nM in [7]; 52 nM in assay [8]; 18 nM in assay [1]. Moreover, the IC50 came out at 8 nM in assay [9], 1200 nM in assay [4], 190 nM in assay [5] and 2.4 nM in [10].

`CN(C)CCn1ccc2cc(Nc3nccc(-n4ccnc4-c4ccc(F)cc4)n3)ccc21` had an IC50 in assay [1] of 17 nM.

As for `Cc1nc(-c2ccc(F)cc2)c(-c2ccnc(Nc3ccc4c(ccn4CCN(C)C)c3)n2)s1`, 11 nM corresponded to half-maximal inhibition in [1] (IC50).

In the case of `CC(=O)Nc1nc(-c2ccc(F)cc2)c(-c2ccnc(Nc3ccc4c(ccn4CCN(C)C)c3)n2)s1`, the concentration for half-maximal inhibition (IC50) in assay [2] stood at 8 nM; in assay [3], 20 nM; in [6] it was 159 nM; in [7], 14 nM; in assay [8], 66 nM; in assay [1], 3.2 nM. The concentration for half-maximal inhibition (IC50) is 4.9 nM in assay [9], 450 nM in assay [4], 340 nM in assay [5] and 2.1 nM in assay [10].

Turning to `CCS(=O)(=O)Nc1nc(-c2ccc(F)cc2)c(-c2ccnc(Nc3ccc(N4CCOCC4)c(F)c3)n2)s1`, half-maximal inhibition in assay [1] (IC50) was put at 4.1 nM.

In the case of `CN1CCN(c2ccc(Nc3nccc(-n4ccnc4-c4ccc(F)cc4)n3)cc2)CC1`, in [1], half-maximal inhibition (IC50) was put at 63 nM.

Take `CC(C)S(=O)(=O)Nc1nc(-c2ccc(F)cc2)c(-c2ccnc(Nc3ccc4c(ccn4CCN(C)C)c3)n2)s1`: in assay [1], the IC50 was 3.4 nM.

`CCN1CCN(c2ccc(Nc3nccc(-c4sc(NS(=O)(=O)CC)nc4-c4ccc(F)cc4)n3)cc2)CC1` showed an IC50 in assay [1] of 2.2 nM.

The compound `CCS(=O)(=O)N1CCC(c2nc(-c3ccc(F)cc3)c(-c3ccnc(Nc4ccc(N5CCN(C)CC5)cc4OC)n3)s2)CC1` yielded a 50% inhibitory concentration (IC50) in assay [1] of 71 nM.

The compound `CCS(=O)(=O)Nc1nc(-c2ccc(F)cc2)c(-c2ccnc(Nc3ccc(N4CCOCC4)cc3)n2)s1` registered an IC50 in assay [1] of 37 nM.

Regarding `CN(C)CCn1ccc2cc(Nc3nccc(-n4ccnc4-c4ccc(C(F)(F)F)cc4)n3)ccc21`, the IC50 in assay [1] was over 1000 nM.

For the compound `CN(C)CCn1ccc2cc(Nc3nccc(-c4sc(NS(=O)(=O)c5ccc(F)cc5)nc4-c4ccc(F)cc4)n3)ccc21`, in assay [1], the half-inhibitory concentration (IC50) stood at 15 nM.

In [1], `CN(C)CCn1ccc2cc(Nc3nccc(-c4sc(NS(C)(=O)=O)nc4-c4ccc(F)cc4)n3)ccc21` came in with an IC50 of 2.5 nM.

In assay [1], `CN(C)CCn1ccc2cc(Nc3nccc(-c4sc(N)nc4-c4ccc(F)cc4)n3)ccc21` yielded a concentration for half-maximal inhibition (IC50) of 2.1 nM.

In turn, `CCS(=O)(=O)Nc1nc(-c2ccc(F)cc2)c(-c2ccnc(Nc3ccc(N4CCN(C(C)C)CC4)cc3)n2)s1` displayed an IC50 in assay [1] of 3.7 nM.

For `COc1cc(N2CCC(N3CCN(C)CC3)CC2)ccc1Nc1ncc(Cl)c(Nc2ccccc2P(C)(C)=O)n1` [BRIGATINIB], the Activity in assay [11] was 11.1%; in assay [12], 11.58%; in assay [13], 10.5%; in [14], 78.4%. For the same compound, the IC50 stood at 390 nM in assay [2], 87 nM in assay [3], 510 nM in assay [4] and 320 nM in assay [5]. Further, the tumour growth inhibition (TGI) in assay [15] worked out at 59.8%.

In turn, `CN(C)CCn1ccc2cc(Nc3nccc(-n4ccnc4-c4ccc(Cl)cc4)n3)ccc21` returned an IC50 in assay [1] of 86 nM.
